Test results from patent US20250375413A1, “METHOD OF INHIBITING LIPASE ACTIVITY IN AGING” (The Regents of the University of California, priority 2024, published 2025).
“Also recorded” adds a separate entry of the source.

Experiments:
[1] = Blood glucose level at tissue collection; type: in vivo, rat; conditions: old rats, two-week treatment
Description: At the time of tissue collection, fresh femoral arterial blood was used to measure the blood glucose level (Contour®, Bayer® Diabetes Care, Tarrytown, NY) and the percent of glycated hemoglobin levels (AIC Home Test; Bristol-Myers Squibb®; NY, NY).

[2] = system: mucin layer on the epithelium of the small intestine; test: Mucin layer density in small intestine (alcian blue); type: in vivo, rat; conditions: old rats, 14 days oral, upper jejunum
Description: (§1) Small intestine: Full-thickness tissue blocks of the wall of the proximal jejunum (3×5 mm) were fixed from all sides in 10% formalin. Digestive enzymes were detected with primary and secondary antibodies labeled with 3, 3′-diaminobenzidine (DAB, Peroxidase Substrate Kit, ab64238, Abcam®).
The mucin-containing layer on the epithelial cells of the small intestine was stained using alcian blue (pH 2.5, kt 003; Diagnostic BioSystems, Pleasanton, CA) followed by a rinse in distilled water and mounted on a microscope slide (Vector Mount AQ Aqueous Mounting Medium, Vector® Laboratories, Burlington, CA).

pancreatic trypsin = conditions: old-treated rats (24 months, 14 days oral) compared with young
Description: A femoral venous catheter was placed after general anesthesia (pentobarbital sodium, 50 mg/kg [Abbott Laboratories, North Chicago, Il1], intramuscularly after local anesthesia [2% lidocaine HCl; Hospira, Inc, Lake Forrest, Il1]). Tissues (intestine, liver, lung, heart, kidney, brain, mesentery, skin) were immediately collected after euthanasia (Beuthanasia i.v., 120 mg/kg, Schering-Plough Animal Health Corp, Union, NJ), fixed (formalin, 10%, neutral buffered, 1 hr), postfixed (fresh formalin, 24 hrs), and stored (formalin, 10%). The period between initial anesthesia and fixation of the tissues was below 60 minutes. […]
Primary antibodies were diluted to 1-1.5 μl/1000 μl of phosphate-buffered saline. […] No counterstain was applied to facilitate quantitative label intensity measurements. […] For each tissue, the labeling procedures were standardized among the animal groups to permit a quantitative comparison of label densities between ages and treatment with digital image analysis.
Images of the immunolabel density were recorded at multiple magnifications (between 10× objective, numerical aperture 0.25, and 60×, numerical aperture 1.4). They were recorded under standard light conditions with fixed optical and digital camera settings (SPOT Insight® GIGABIT camera, Sterling Height) so that the camera serves as a quantitative light intensity meter without pixel intensity saturation. […]

[3] = Effect of oral treatment on digestion / body weight; type: in vivo, rat; conditions: old rats, temporary oral treatment in drinking water
Description: Male Wistar rats (Harlan Sprague Dawley Inc., Indianapolis, IN) at maturity (4 months, 300 to 350 gm) and at old age (24 months, 375 to 450 gm) were included in the study. The animals were maintained on standard laboratory chow (8604 Teklad rodent diet; Harlan Laboratories, Indianapolis, Ind) without restriction and water ad libitum and maintained in a separate room without pathogen-free conditions.

[4] = system: pancreatic trypsin and amylase; test: Digestive enzyme (trypsin, amylase) accumulation in the intestinal wall, whole mount co-labeling; type: in vivo, rat; conditions: old rats, 14 days oral; villi tips and submucosa
Description: as §1
To co-label the small intestine for mucin and trypsin, the fixed intestine was immersed in the primary antibody against trypsin and stained with DAB substrate. Thereafter the tissue section was embedded in resin and sectioned into thin (1 μm) sections. The mucin label (alcian blue), was applied to the thin section, coverslipped, and imaged.

insulin receptor = test: Brain insulin receptor extracellular domain immunolabel density; type: in vivo, rat; conditions: old rats, two-week treatment
Description: Sections without primary antibodies were used as negative controls.
Insulin receptors' densities on random tissue sections, labeled with an antibody against the extracellular domain, are digitally recorded by placing an optical window on the cell and determining light intensity at a constant incident light Io.

Substance: tranexamic acid [trypsin inhibitor]
- plasma/blood glucose level [1]: mitigated; also recorded: restored in part
- mucin layer density on intestinal villi [2]: partially restored; also recorded: restored in part
- trypsin label density in the brain (pancreatic trypsin): almost reached the level in the young (no significant difference)
- trypsin label density in the mesentery (pancreatic trypsin): not different from the young
- attenuation of digestion, such as reduction of body weight [3]: did not lead to a detectable attenuation of digestion
- accumulation of trypsin and amylase in the intestinal wall [4]: attenuated
- density of insulin receptor ectodomains in cerebral cortex (insulin receptor): in part restored; also recorded: restored in part
